Assay results reported in publication PMC11562494 (BMC Chemistry, 2024).
Values after ≈ are worked out from the molar mass of the structure shown. Values joined by “and” are separate entries in the source; they are usually repeats but may differ in a detail not shown here. Equal values may be shown once.

Assays:
E. cloacae = test: Broth dilution MIC/MBC; format: cell-based, Enterobacter cloacae; settings: for MBC / MIC: Enterobacter cloacae; for MBC: read-out: MBC E. cloacae; for MIC: read-out: MIC E. cloacae
B. pumilus = test: Broth dilution MIC/MBC; format: cell-based, Bacillus pumilus; settings: for MBC / MIC: Bacillus pumilus; for MBC: read-out: MBC B. pumilus; for MIC: read-out: MIC B. pumilus
S. cerevisiae = test: Broth dilution MIC/MFC; format: cell-based, Saccharomyces cerevisiae; settings: for MFC / MIC: Saccharomyces cerevisiae; for MFC: read-out: MFC S. cerevisiae; for MIC: read-out: MIC S. cerevisiae
C. albicans = test: Broth dilution MIC/MFC; format: cell-based, Candida albicans; settings: for MFC / MIC: Candida albicans; for MFC: read-out: MFC C. albicans; for MIC: read-out: MIC C. albicans, broth dilution; for MIC C. albicans: broth dilution
S. faecalis = test: Broth dilution MIC/MBC; format: cell-based, Streptococcus faecalis; settings: for MBC / MIC: Enterococcus faecalis; for MBC: read-out: MBC S. faecalis; for MIC: read-out: MIC S. faecalis
E. coli [1] = test: Broth dilution MIC/MBC; format: cell-based, Escherichia coli; settings: for MBC / MIC: Escherichia coli; for MBC: read-out: MBC E. coli; for MIC: read-out: MIC E. coli
DNA gyrase A = DNA gyrase A (Escherichia coli, UniProt P0AES4); test: DNA gyrase supercoiling assay; format: biochemical; settings: IC50 ± SD DNA gyrase A, E. coli DNA gyrase supercoiling
E. coli [2] = test: Time-kill kinetic test; format: cell-based; settings: 1x MIC
WI38 cells = test: In vitro cytotoxicity MTT assay; settings: Homo sapiens, WI-38, 48 h, read-out: WI-38 IC50 ± SD

MIC (E. cloacae) [µg/mL] | MBC/ MIC ratio B. pumilus (B. pumilus) | MIC (B. pumilus) [µg/mL] | MFC/ MIC ratio S. cerevisiae (S. cerevisiae) | MIC (S. cerevisiae) [µg/mL] | MIC (C. albicans) [µg/mL] | MIC (S. faecalis) [µg/mL] | MIC (E. coli [1]) [µg/mL] | MBC/ MIC ratio E. cloacae (E. cloacae) | MBC/ MIC ratio S. faecalis (S. faecalis) | MBC/ MIC ratio E. coli (E. coli [1]) | MFC/ MIC ratio C. albicans (C. albicans) | SMILES | MBC (E. cloacae) [µg/mL] | MBC (B. pumilus) [µg/mL] | MFC (S. cerevisiae) [µg/mL] | MFC (C. albicans) [µg/mL] | MBC (S. faecalis) [µg/mL] | MBC (E. coli [1]) [µg/mL] | other results
31.3 (≈ 88.4 µM) | 2 | 31.3 (≈ 88.4 µM) | 4 | 125 (≈ 353 µM) | 31.3 (≈ 88.4 µM) | 31.3 (≈ 88.4 µM) | 7.81 (≈ 22 µM) | – | – | – | – | N#Cc1c(-c2ccc(Cl)cc2Cl)c(C(N)=S)c(N)n(N)c1=O [Compound 4b, 1,2-diamino-5-cyano-4-(2,4-dichlorophenyl)-6-oxo-1,6-dihydropyridine-3-carbothioamide] | 125 (≈ 353 µM) | 62.5 (≈ 176 µM) | 500 (≈ 1410 µM) | 62.5 (≈ 176 µM) | 125 (≈ 353 µM) | 62.5 (≈ 176 µM) | –
62.5 (≈ 280 µM) | 2 | 62.5 (≈ 280 µM) | 8 | 62.5 (≈ 280 µM) | 31.3 (≈ 140 µM) | 15.6 (≈ 69.9 µM) | 15.6 (≈ 69.9 µM) | 2 | 4 | 2 | – | Cc1c(C(N)=S)c(N)n(N)c(=O)c1C#N [Compound 4a, 1,2-diamino-5-cyano-4-methyl-6-oxo-1,6-dihydropyridine-3-carbothioamide] | 125 (≈ 560 µM) | 125 (≈ 560 µM) | 500 (≈ 2240 µM) | 62.5 (≈ 280 µM) | 62.5 (≈ 280 µM) | 31.3 (≈ 140 µM) | –
– | 2 | 62.5 (≈ 187 µM) | – | – | – | 31.5 (≈ 94.2 µM) | – | – | 2 | – | – | CC1(C)S[C@@H]2[C@H](NC(=O)Cc3ccccc3)C(=O)N2[C@H]1C(=O)O [Pen. G, Penicillin G, reference compound] | – | 125 (≈ 374 µM) | – | – | 62.5 (≈ 187 µM) | – | –
62.5 (≈ 200 µM) | 4 | 15.6 (≈ 49.9 µM) | 4 | 31.3 (≈ 100 µM) | 31.3 (≈ 100 µM) | 62.5 (≈ 200 µM) | 15.6 (≈ 49.9 µM) | 2 | 2 | 4 | 2 | CN(C)c1ccc(-c2c(C(N)=O)c(N)n(N)c(=O)c2C#N)cc1 [Compound 3c, 1,2-diamino-5-cyano-4-(4-(dimethylamino)phenyl)-6-oxo-1,6-dihydropyridine-3-carboxamide] | 125 (≈ 400 µM) | 62.5 (≈ 200 µM) | 125 (≈ 400 µM) | 125 (≈ 400 µM) | 125 (≈ 400 µM) | 62.5 (≈ 200 µM) | MIC C. albicans (C. albicans): 62.5 µg/mL (≈ 200 µM)
– | – | – | – | 1.95 (≈ 3.67 µM) | 1.95 (≈ 3.67 µM) | – | – | – | – | – | – | CC(=O)N1CCN(c2ccc(OCC3COC(Cn4ccnc4)(c4ccc(Cl)cc4Cl)O3)cc2)CC1 (stereo not shown) [Keto., Ketoconazole, reference compound] | – | – | 15.6 (≈ 29.4 µM) | 31.3 (≈ 58.9 µM) | – | – | –
62.5 (≈ 160 µM) | 4 | 7.81 (≈ 20 µM) | 2 | 31.3 (≈ 80 µM) | 31.3 (≈ 80 µM) | 31.3 (≈ 80 µM) | 7.81 (≈ 20 µM) | 2 | 2 | 4 | 2 | N#Cc1c(-c2ccc(OCc3ccccc3)cc2)c(C(N)=S)c(N)n(N)c1=O [Compound 4d, 1,2-diamino-4-(4-(benzyloxy)phenyl)-5-cyano-6-oxo-1,6-dihydropyridine-3-carbothioamide] | 125 (≈ 319 µM) | 31.3 (≈ 80 µM) | 62.5 (≈ 160 µM) | 125 (≈ 319 µM) | 62.5 (≈ 160 µM) | 31.3 (≈ 80 µM) | MIC C. albicans (C. albicans): 62.5 µg/mL (≈ 160 µM)
15.6 | 2 | 62.5 | 2 | 62.5 | 62.5 | 31.3 | 3.91 | 4 | 2 | 4 | 2 | CC(=O)Oc1ccc(-c2c(C(N)=O)c(N)n(N)c(=O)c2C#N)cc1 [Compound 3e, 4-(1,6-diamino-5-carbamoyl-3-cyano-2-oxo-1,2-dihydropyridin-4-yl)phenyl acetate] | 62.5 | 125 | 125 | 125 | 62.5 | 15.6 | IC50 (DNA gyrase A): 11.5 µM; Time to bactericidal activity against E. coli (E. coli [2]): 90 to 120 min and 120 min; IC50 (WI38 cells): 43.2 ± 1.7 µM
31.3 (≈ 92.6 µM) | 2 | 15.6 (≈ 46.1 µM) | 2 | 125 (≈ 370 µM) | 62.5 (≈ 185 µM) | 31.3 (≈ 92.6 µM) | 7.81 (≈ 23.1 µM) | 4 | 2 | 4 | 2 | N#Cc1c(-c2ccc(Cl)cc2Cl)c(C(N)=O)c(N)n(N)c1=O [Compound 3b, 1,2-diamino-5-cyano-4-(2,4-dichlorophenyl)-6-oxo-1,6-dihydropyridine-3-carboxamide] | 125 (≈ 370 µM) | 31.3 (≈ 92.6 µM) | 250 (≈ 739 µM) | 125 (≈ 370 µM) | 62.5 (≈ 185 µM) | 31.3 (≈ 92.6 µM) | –
